Consider one compound from PMC3688963, “Biochemical Characterization of Hypothetical Proteins from Helicobacter pylori” (PLoS ONE, 2013).

By Km is commonly meant the substrate concentration at which the rate is half of its maximum.

This test deals with T1, HP1079 (Helicobacter pylori, UniProt O25711).
T1 construct: gene HP_1079; native protein captured with GTP-coated nano-particles; His6 recombinant also made
T1 sequence (O25711 1-370): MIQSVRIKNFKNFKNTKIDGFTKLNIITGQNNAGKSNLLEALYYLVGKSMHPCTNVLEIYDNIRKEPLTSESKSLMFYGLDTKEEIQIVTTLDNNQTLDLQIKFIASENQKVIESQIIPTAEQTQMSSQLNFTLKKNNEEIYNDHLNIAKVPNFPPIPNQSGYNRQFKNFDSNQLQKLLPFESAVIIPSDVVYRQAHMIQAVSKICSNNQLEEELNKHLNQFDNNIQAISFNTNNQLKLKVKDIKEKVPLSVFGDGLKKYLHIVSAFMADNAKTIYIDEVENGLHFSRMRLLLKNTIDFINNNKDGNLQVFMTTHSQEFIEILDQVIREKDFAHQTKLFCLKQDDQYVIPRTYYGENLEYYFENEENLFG
Briefly: phosphate release, malachite green. It is filed as biochemical. As to conditions: 10 mM MgCl2, 10% glycerol, 100 mM sodium acetate pH 6.0, 30°C; read-out: Km (mM)^bc. An excerpt:
phosphate release, malachite green on HP1079

As to `Nc1ncnc2c1ncn2[C@@H]1O[C@H](COP(=O)(O)OP(=O)(O)OP(=O)(O)O)[C@@H](O)[C@H]1O` [ATP], the Km is 1.02 ± 0.05 mM.
